Residues, ends and D or L forms follow the SMILES beside them. *: point of attachment. Cbz = O=C(OCc1ccccc1)*; CH2F = FC*
Key:
[1] = system: JNK; experiment: Western blot for JNK activation (p-JNK) in APP-CHO cells; type: cell-based, Chinese Hamster; details: 10 μM, 6 hr
Procedure: (§1) APP-CHO cells were treated with 10 μM metal-BTSC complexes for 6 hr and cell lysates examined for activation of PI3K and MAPK signal pathways.
(§2) APP-CHO cells were treated with 10 μM metal-BTSC complexes for 6 hr. Cells were extracted into Phosphosafe (Novagen) lysis buffer and proteins separated by gel-electrophoresis on 12% tris-glycine gels. Proteins were transferred to PVDF membranes and blocked with milk powder for 1 hr. Blots were then probed for total and phosphorylated forms of Akt, JNK and GSK3 using antibodies from Cell Signaling Technologies. After detection with secondary antisera (HRP-labelled), blots were analyzed for signals using chemiluminescence analysis on a GeneGnome image scanner. Activation of PI3K is shown by increased levels of phosphorylated Akt (p-Akt). Activated JNk is shown by increased p-JNK. Increased levels of deactivated GSK3 is shown by increased p-GSK3.

[2] = system: PI3K (Akt phosphorylation); experiment: Western blot for PI3K activation (Akt phosphorylation) in APP-CHO cells; type: cell-based, Chinese Hamster; details: 10 μM, 6 hr
Procedure: as §1, §2

[3] = system: Aβ1-40; experiment: Extracellular Aβ1-40 in conditioned medium of APP-CHO cells (ELISA); type: cell-based, Chinese Hamster; details: 6 hr; for effect on Aβ1-40 levels at lower dose: 1 μM
Procedure: […] treatment regimes were used namely a control, 1 μM, 5 μM, 10 μM, 25 μM and 50 μM (FIG. 3). APP-transfected CHO cells were treated with each of the doses of [Cu(GTSM)] for 6 hr in serum-free medium and conditioned medium was then collected and assayed for Aβ1-40 peptide by routine […].
Five treatment regimes were used namely a control, 1 ? M, 5 ? M, 10 ? M, 25 ? M and 50 ? M (FIG. 4). APP-transfected CHO cells were treated with each of the doses of [Zn(BTSC)] for 6 hr in serum-free medium and conditioned medium was then collected and assayed for Aβ1-40 peptide by routine Aβ ELISA.
Generation of APP-transfected Chinese Hamster Ovary (CHO) APP-CHO cells were generated by expressing the 695-amino acid APP cDNA in the pIRESpuro2 expression vector (Clontech, Mountain View, Calif., USA). Cells were transfected using Lipofectamine 2000 and cultured in RPMI-1640 media supplemented with 1 mM glutamine and 10% fetal bovine serum (all from Invitrogen, Mount Waverley, Victoria, Australia). Transfected cells were selected and maintained using 7.5 μg/ml puromycin (Sigma-Aldrich).
Treatment of cells with Complexes. APP-CHO cells were passaged at a ratio of 1:5 and grown in 6 well plates for 3 days before experiments. Compounds were prepared as a 10 mM stock solution in DMSO and added to serum-free RPMI medium supplemented with puromycin. Medium was briefly mixed by aspiration prior to addition to cells. Control cultures were treated with vehicle (DMSO) alone. Cultures were incubated for 6 hr and conditioned media taken for measurement of […] levels by ELISA.
Double antibody capture enzyme-linked immunosorbent assay (ELISA) for Aβ detection. Aβ levels were determined in culture medium using the 384 well Aβ1-40 ELISA protocol. 384 well plates were coated with monoclonal antibody (mAb) G2-10 in carbonate-bicarbonate coating buffer (pH 9.6) for Aβ1-40 detection. The plates were left to incubate overnight at 4° C. with rocking. The plates were then washed three times with PBST at RT with rocking and the solution discarded after each wash. Then 100 μL of 0.5% (w/v) hydrolyzed casein in PBS (pH 7.4) was added to each well and left to incubate for 2 hr at 37° C. to prevent non-specific binding. The plates were then washed three times with PBST at RT with rocking. 20 ng of biotinylated mAb WO2 (epitope at Aβ5-8) was added to each well of the plates (10 μL/well at […]). 50 μL/well of Aβ1-40 standard peptide samples (MHRI, Melbourne, Australia), cell culture medium samples and the blanks were added. The plates were left to incubate overnight at 4° C. with rocking. The plates were washed nine times with PBST at RT with rocking. 25 μL streptavidin-labelled europium was added at a dilution of 1:1000. Plates were then washed ten times with PBST where the 9th and 10th wash was left on for 5 min before discarding. To develop the plates 80 μL of enhancement solution was added to each well and plates were read in a WALLAC Victor^2 plate reader with excitation (Ex) at 340 nm and emission (Em) at 613 nm. Aβ1-40 peptide standards and samples were assayed in triplicate. The values obtained from the triplicate wells were used to calculate the […] concentration (expressed as ng/mL) based on the standard curve generated on each plate and are given in Table 3.
APP-CHO cells were treated with 10 μM [Zn(ATSE)] with or without specific inhibitors of PI3K (LY294002), JNK (SP600125) or p38 (SB203580) (25 μM of each) for 6 hr and conditioned medium analyzed for levels of Aβ1-40 by routine ELISA.

[4] = system: G93A-SOD1 mice; details: other reported pharmacological treatments (literature); cited from earlier work
[5] = system: GSK3; experiment: Western blot for GSK3 phosphorylation and expression in APP-CHO cells; type: cell-based, Chinese Hamster; details: 10 μM, 6 hr
Procedure: as §1, §2

[6] = system: APP-transfected CHO cells; experiment: Cellular zinc uptake of Zn-BTSC complexes (ICP-MS), with or without Cu2+; type: cell-based, Chinese Hamster; details: 6 hr
Procedure: It was known that copper can transmetallate [Zn(BTSC)] complexes. Therefore, if [Zn(BTSC)] complexes were administered to the culture medium in the presence of exogenous Cu^2+, we would expect [Cu(BTSC)] complexes to form. To examine this, cells were exposed to 10 μM [Zn(ATSE)] or [Zn(ATSP)] with or without 5-50 μM Cu^2+ for 6 hr.
Supernatant was discarded and cell pellets frozen at −70° C. until metal levels were determined by inductively-coupled plasma mass spectrometry (ICP-MS) at the Department of Pathology, University of Melbourne. […] [Zn(ATSM)] and [Zn(ATSE)] induced 8.2±0.25 and 9.8±0.9-fold increases in cellular Zn levels respectively when compared to untreated controls (FIG. 2).
To examine this, cells were exposed to 10 μM [Zn(ATSE)] or [Zn(ATSP)] with or without 5-50 μM Cu^2+ for 6 hr. Co-treatment of cells with Cu and the Zn-BTSC complexes reduced the level of Zn uptake compared to Zn-BTSC alone (FIG. 5).

[7] = system: ERK, GSK3 and JNK; experiment: Downstream phosphorylation of ERK, GSK3 and JNK in U87MG-EGFR cells (Western blot); type: cell-based; details: 25 μM CuGTSM plus 10 μM PD153035; not completely ablated
Procedure: A study was carried out to determine if kinase pathways modulated by CuGTSM were mediated by activation of EGFR. This was done by treating U87MG-EGFR cells with 25 μM DMSO, CuGTSM, CuGTSM plus 10 μM PD153035 (EGFR inhibitor), or 10 μM PD153035 alone. The activation of ERK, GSK3 and JNK was then determined by Western blot.

[8] = system: EGFR; experiment: EGFR phosphorylation (tyr1068) in U87MG-EGFR cells (Western blot); type: cell-based; details: added to CuGTSM-treated cells (25 μM CuGTSM)
Procedure: Transfected U87MG-EGFR cells were treated with 25 μM CuGTSM or DMSO as vehicle control for 5 hr and EGFR phosphorylation (tyr1068) determined by Western blot. Antisera to EGFRtyr1068 was routinely used as this is one of the critical tyrosine residues involved in EGFR activation and downstream signaling. It is also routinely reported in the literature on EGFR activation.

## CC(=N\NC([S-])=Nc1ccccc1)/C(C)=N/NC([S-])=Nc1ccccc1.[Cu+2] [CuATSP]
[1]
  activation of JNK: did not induce activation
[2]
  activation of PI3K (Akt phosphorylation): did not induce activation

## CCNC1=N[N+]2=C(C)C(C)=[N+]3N=C(NCC)[S][Cu-2]23[S]1 [CuATSE]
[1]
  activation of JNK: did not induce activation
[2]
  activation of PI3K (Akt phosphorylation): did not induce activation

## C[S+]([O-])c1ccc(-c2nc(-c3ccncc3)c(-c3ccc(F)cc3)[nH]2)cc1 (stereo not shown) [SB203580, reference compound]
[3]; 25 μM inhibitor with 10 μM [Zn(ATSE)]
  effect of kinase inhibitor on the loss of Aβ by [Zn(ATSE)]: no effect

## CCN1C=CN(CC)C1=C1C2=NC(=C(c3n(CC)cc[n+]3CC)C3=NC(=C(c4n(CC)cc[n+]4CC)c4ccc([n-]4)C(c4n(CC)cc[n+]4CC)=C4C=CC1=N4)C=C3)C=C2.[Cl-].[Cl-].[Cl-].[Cl-].[Cl-].[Mn+3] [AEOL 10150]
[4]
  Increased Life Span: 20 days

## CC1=[N+]2N=C(Nc3ccccc3)[S][Zn]23[S]C(Nc2ccccc2)=N[N+]3=C1C [[Zn(ATSP)]]
[1]
  activation of JNK: did not induce activation
[5]
  GSK3 expression: small increase
[2]
  activation of PI3K (Akt phosphorylation): did not induce activation

## Vitamin E
[4]
  Increased Life Span: No effect

## CCNC1=NN=C(C)C(C)=NN=C(NCC)[S][Zn][S]1 [[Zn(ATSE)]]
[1]
  activation of JNK: induced activated
[5]
  GSK3 expression: increased
  phosphorylation (de-activation) of GSK3: induced down-stream phosphorylation
[2]
  activation of PI3K (Akt phosphorylation): induced activated
[3]
  effect on Aβ1-40 levels at lower dose: greater reductions
[3]; listed as Zn-ATSE
  effect on Aβ1-40 levels at lower dose: inhibited
[6]; 10 μM complex alone
  fold increase in cellular zinc levels: 9.7±0.7 fold
[6]; 10 μM complex in the presence of 10 μM Cu2+
  fold increase in intracellular zinc: 2.9±0.3 fold
[6]; APP-CHO cells, 1-50 μM, vs untreated controls
  fold increases in cellular Zinc levels: 9.8±0.9 fold

## CNC(=S)NN=CC=NNC(=S)NC [GTSMH2]
[3]; 1-50 μM, serum-free medium
  effect on extracellular Aβ1-40 levels: very small reduction

## CN(CC(=O)O)C(=N)N [Creatine]
[4]
  Increased Life Span: 20 days

## COC(=O)C[C@H](NC(=O)[C@H](C)NC(=O)[C@@H](NC(=O)OCc1ccccc1)C(C)C)C(=O)CF [zVAD-fink] (Cbz-Val-Ala-Asp(OMe)-CH2F)
[4]
  Increased Life Span: 27 days

## CO/N=C(\C(=O)N[C@@H]1C(=O)N2C(C(=O)O)=C(CSc3nc(=O)c(=O)[nH]n3C)CS[C@H]12)c1csc(N)n1 [Ceftriaxone]
[4]
  Increased Life Span: 10 days

## CCNC1=NN=C2CCCCC2=NN=C(NCC)[S][Zn][S]1 [[Zn(ChexTSE)]]
[3]
  effect on Aβ1-40 levels at lower dose: greater reductions
[3]; listed as Zn-Chex TSE
  effect on Aβ1-40 levels at lower dose: inhibited

## Nc1nc2ccc(OC(F)(F)F)cc2s1 [Riluzole]
[4]
  Increased Life Span: 10 to 15 days

## COc1cc2ncnc(Nc3cccc(Br)c3)c2cc1OC [PD153035]
[7]
  CuGTSM-induced phosphorylation of JNK, GSK3 and ERK: decrease
[8]
  effect on CuGTSM-induced activation of EGFR: inhibited activation

From patent publication US11123350B2, “Metal delivery agents and therapeutic uses of the same” (THE UNIVERSITY OF MELBOURNE, priority 2006, dated 2021)
